Data from patent EP4793275A1, “AT2R ANTAGONIST AND USE THEREOF” (Hubei Bio-Pharmaceutical Industrial Technological Institute …, priority 2023, dated 2025).

How the values were obtained:
[1] = Pharmacokinetic test in rats; format: in vivo; settings: rat; male SD rats, oral administration by gavage, 10 mg/kg, plasma
Method: For the pharmacokinetic test of rats, 3 male SD rats (180 g to 240 g) were employed and fasted overnight. The rats were orally administered a dose of 10 mg/kg by gavage. Blood was collected before the administration, and at 15 minutes, 30 minutes, 1 hour, 2 hours, 4 hours, 6 hours, 8 hours, and 24 hours after the administration. The blood samples were centrifuged at 8,000 rpm and at 4°C for 6 minutes, and plasma was collected and stored at -20°C. The plasma at each time point was taken and mixed with 3 to 5 volumes of an acetonitrile solution containing an internal standard. The mixture was vortexed for 1 minute, and centrifuged at 13,000 rpm and at 4°C for 10 minutes. The supernatant was collected and mixed with 3 volumes of water. An appropriate amount of the mixture was taken for LC-MS/MS analysis. The main pharmacokinetic parameters were analyzed by a non-compartmental model using WinNonlin 7.0 software. [Table 2] Results of Pharmacokinetic Test in Rats

AT2R = biological target: T1, AT2R (Homo sapiens, UniProt P50052); assay: Binding assay of compounds to AT2R (Tag-lite HTRF ligand binding kit); settings: labeled cells, Tag-lite red fluorescent labeled ligand, 1 hour at room temperature
T1 construct: purchased Cisbio C1TT1AT2
T1 sequence (P50052 1-363): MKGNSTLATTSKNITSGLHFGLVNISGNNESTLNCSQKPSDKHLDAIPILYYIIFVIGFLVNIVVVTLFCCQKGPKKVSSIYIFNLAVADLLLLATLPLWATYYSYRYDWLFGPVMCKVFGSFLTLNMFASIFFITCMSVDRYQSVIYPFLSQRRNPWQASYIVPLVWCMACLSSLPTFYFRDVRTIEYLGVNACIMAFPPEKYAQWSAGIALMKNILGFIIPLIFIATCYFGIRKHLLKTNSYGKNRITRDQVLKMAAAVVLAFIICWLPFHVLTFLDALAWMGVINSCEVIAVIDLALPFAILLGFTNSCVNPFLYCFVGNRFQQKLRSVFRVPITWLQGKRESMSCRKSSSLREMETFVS
Method: The assay was performed in accordance with the manufacturer instructions of Angiotensin AT2 Receptor Ligand Binding Assay Kit (#C1TT1AT2, Cisbio). First, a 10 mM compound stock solution was diluted in a gradient at a 5× dilution ratio (including 10 concentrations, each with two replicates). 160 nL of compounds at different concentrations was added to a 384-well plate. 40 µL of 1× TLB was added to each well, and the mixture was shaken at room temperature for 15 minutes. A 15 mL centrifuge tube added with 5 mL of 1×TLB was prepared in advance. The frozen labeled cells were thawed in a water bath at 37°C (for 1 to 2 minutes), and the thawed cells were quickly transferred to the above 15 mL centrifuge tube. The mixture was mixed well and centrifuged at 1,000 g at room temperature for 5 minutes. The supernatant was removed, and the cells were resuspended by adding 2.7 mL 1× TLB. A new 384-well plate was taken, and 10 µL of mixed cells were added into the corresponding wells according to the assay design. 5 µL of 4× compound solution and 5 µL of 4× Tag-lite red fluorescent labeled ligand were added to each well. After incubation at room temperature for 1 hour, data was read using EnVision with an HTRF mode. The excitation light intensities at 665nM and 615nM in each well were read respectively, and the ratio was calculated (Ratio=A665nM/B615nM). The IC50 value was calculated by means of GraphPad Prism8 software, where X represents logarithmic value of compound concentration; and Y represents ratio of A665nM/B615nM. [Table 1] Binding activity of compounds to AT2R

hERG potassium channel = biological target: T2, hERG potassium channel (Homo sapiens, UniProt Q12809); assay: Effects on hERG channel currents by manual patch-clamp; format: cell-based; settings: HEK-293 cell line stably expressing hERG potassium channel, tail current, room temperature; read-out: IC50 (inhibitory effects on hERG)
T2 construct: host or cells: HEK-293
T2 sequence (Q12809 whole entry): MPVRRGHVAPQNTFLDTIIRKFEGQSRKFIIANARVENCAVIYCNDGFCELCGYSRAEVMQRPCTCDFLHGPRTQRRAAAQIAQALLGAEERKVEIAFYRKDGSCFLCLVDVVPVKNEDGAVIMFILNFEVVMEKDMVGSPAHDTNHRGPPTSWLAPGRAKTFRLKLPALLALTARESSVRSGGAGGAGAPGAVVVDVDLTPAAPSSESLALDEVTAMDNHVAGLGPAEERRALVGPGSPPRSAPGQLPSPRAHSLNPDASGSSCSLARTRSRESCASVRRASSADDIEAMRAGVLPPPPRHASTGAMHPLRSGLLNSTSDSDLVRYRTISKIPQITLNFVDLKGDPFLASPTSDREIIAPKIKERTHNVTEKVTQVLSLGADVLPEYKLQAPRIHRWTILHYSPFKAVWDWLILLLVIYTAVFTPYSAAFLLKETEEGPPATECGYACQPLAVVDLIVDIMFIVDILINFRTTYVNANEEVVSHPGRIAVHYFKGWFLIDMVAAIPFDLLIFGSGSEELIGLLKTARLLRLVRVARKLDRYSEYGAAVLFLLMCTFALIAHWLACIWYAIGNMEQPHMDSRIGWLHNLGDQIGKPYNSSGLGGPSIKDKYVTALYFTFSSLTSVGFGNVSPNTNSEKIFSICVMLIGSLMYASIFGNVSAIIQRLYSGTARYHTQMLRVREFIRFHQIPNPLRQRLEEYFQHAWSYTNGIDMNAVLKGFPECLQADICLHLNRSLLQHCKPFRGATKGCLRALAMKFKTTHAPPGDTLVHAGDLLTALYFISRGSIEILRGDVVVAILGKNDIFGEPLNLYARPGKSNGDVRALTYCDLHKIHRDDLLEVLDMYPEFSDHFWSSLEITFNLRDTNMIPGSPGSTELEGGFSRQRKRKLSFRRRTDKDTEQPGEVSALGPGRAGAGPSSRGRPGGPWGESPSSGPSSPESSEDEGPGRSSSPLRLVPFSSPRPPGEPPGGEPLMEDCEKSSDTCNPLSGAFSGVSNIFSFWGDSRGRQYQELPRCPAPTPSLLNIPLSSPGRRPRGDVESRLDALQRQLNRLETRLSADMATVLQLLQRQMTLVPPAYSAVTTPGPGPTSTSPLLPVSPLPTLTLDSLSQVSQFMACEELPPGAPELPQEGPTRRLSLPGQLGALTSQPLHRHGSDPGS
Method: A manual patch-clamp assay was conducted using an HEK-293 cell line stably expressing an hERG potassium channel. hERG potassium channel cells were purchased from Creacell Co., Ltd. (catalog No.: A-0320). Final concentrations of test compounds were freshly prepared on the day of the assay, and then the test compounds were dissolved in an extracellular solution. The extracellular solution (mM) was: […], 3.5 mM KCl, 1 mM MgCl2·6H2O, 2 mM CaCl2·2H2O, 10 mM D-Glucose, 10 mM HEPES, 1.25 mM NaH2PO4·2H2O; pH 7.4 (titrated with NaOH). An intracellular solution (mM) was: 20 mM KCl, 115 mM K-Aspartic, 1 mM MgCl2·6H2O, 5 mM EGTA, 10 mM HEPES, 2 mM Na2-ATP; pH 7.4 (titrated with KOH).
Electrophysiological Assay: After whole-cell patch-clamp formation, the cell membrane potential was clamped at -80 mV. The holding potential was depolarized to -50 mV from -80 mV and maintained for 0.5 seconds (for leak current detection), then stepped to 30 mV for 2.5 seconds, and then rapidly repolarized back to -50 mV for 4 seconds to elicit a tail current of the hERG channel. Data was collected repeatedly every 10 seconds to observe the effects of the drug on hERG tail current (Peak tail currentcompound). A stimulation at -50 mV for 0.5 seconds was used for the leak current detection. Drug administration was initiated after the hERG current recorded in the whole-cell configuration stabilized. After each drug concentration was applied for 5 minutes (or until the current stabilized), the next concentration was tested. One or more concentrations were tested for each test compound. A current detected in each cell in a compound-free extracellular solution (Peak tail currentControl) served as an internal control for the corresponding cell. […]
Data Analysis: The inhibition rate corresponding to each drug concentration was calculated (1-(Peak tail currentcompound/Peak tail currentControl)), and the concentration-response curves were fitted using nonlinear regression in GraphPad Prism software. The IC50 value of each compound was calculated using the following equation: Y=1/(1+10^((LogIC50-X)×HillSlope)). […]

[2] = Pharmacokinetic test in canines; format: in vivo; settings: dog; male Beagle canines, oral gavage, 5 mg/kg, plasma
Method: For the pharmacokinetic test of canines, 3 male Beagle canines (10 kg to 12 kg) were employed and fasted overnight. The canines were orally administered a dose of 5 mg/kg by gavage. Blood was collected before the administration, and at 5 minutes, 15 minutes, 30 minutes, 1 hour, 2 hours, 4 hours, 6 hours, 8 hours, and 24 hours after the administration. The blood samples were centrifuged at 6,000 g and at 2°C to 8°C for 3 minutes, and plasma was collected and stored at -20°C. The plasma at each time point was taken and mixed with 10 volumes of a 50% methanol in acetonitrile solution containing an internal standard. The mixture was vortexed for 5 minutes, and centrifuged at 4,000 rpm and at 4°C for 5 minutes. The supernatant was collected and mixed with 1 volume of water. An appropriate amount of the mixture was taken for LC-MS/MS analysis. The main pharmacokinetic parameters were analyzed by a non-compartmental model using WinNonlin 7.0 software. [Table 3] Results of Pharmacokinetic Test in Canines

SMILES | AUC(0-t) [1] [ng·h/mL] | Cmax [1] [ng/mL] | IC50 (AT2R) [nM] | AUC(0-t) [2] [ng·h/mL] | Cmax [2] [ng/mL] | IC50 (hERG potassium channel) [nM]
CC(C)Cc1cc(C(F)F)c(-c2nn[nH]n2)c(N2CCN(Cc3cccnn3)[C@@H](C)C2)c1 [Compound I-4, (S)-3-((4-(3-(difluoromethyl)-5-isobutyl-2-(2H-tetrazol-5-yl)phenyl)-2-methylpiperazin-1-yl)methyl)pyridazine] | 14100 | 4380 | 4.1 | – | – | > 30000
CC(C)Cc1cc(OC(F)F)c(-c2nn[nH]n2)c(N2CCN(Cc3cccnn3)[C@@H](C)C2)c1 [Compound I-5, (S)-3-((4-(3-(difluoromethoxy)-5-isobutyl-2-(2H-tetrazol-5-yl)phenyl)-2-methylpiperazin-1-yl)methyl)pyridazine] | – | – | 2.4 | 2290 | 1320 | 22800
CC(C)Cc1cc(OC(F)(F)F)c(-c2nn[nH]n2)c(N2CCN(Cc3cccnn3)[C@@H](C)C2)c1 [Compound I-6, (S)-3-((4-(5-isobutyl-2-(2H-tetrazol-5-yl)-3-(trifluoromethoxy)phenyl)-2-methylpiperazin-1-yl)methyl)pyridazine] | – | – | 3.6 | – | – | –

Continued, in another order:

AUC(0-t) [1] [ng·h/mL] | Cmax [1] [ng/mL] | IC50 (AT2R) [nM] | AUC(0-t) [2] [ng·h/mL] | Cmax [2] [ng/mL] | SMILES | IC50 (hERG potassium channel) [nM]
– | – | 8 | – | – | Cc1nnc(CN2CCN(c3cc(CC(C)C)cc(C(F)F)c3-c3nn[nH]n3)C[C@@H]2C)s1 [Compound I-7, (2S)-4-(3-(difluoromethyl)-2-(3H-1,2,3,4-tetrazol-5-yl)-5-isobutylphenyl)-2-methyl-1-((5-methyl-1,3,4-thiadiazol-2-yl)methyl)piperazine] | –
– | – | 2.5 | – | – | Cc1nnc(CN2CCN(c3cc(CC(C)C)cc(OC(F)F)c3-c3nn[nH]n3)C[C@@H]2C)s1 [Compound I-8, (2S)-4-(3-((difluoromethyl)oxy)-2-(3H-1,2,3,4-tetrazol-5-yl)-5-isobutylphenyl)-2-methyl-1-((5-methyl-1,3,4-thiadiazol-2-yl)methyl) piperazine] | –
10000 | 3240 | 12 | 1300 | 850 | CC(C)Cc1cc(F)c(-c2nn[nH]n2)c(N2CCN(Cc3cccnn3)[C@@H](C)C2)c1 [Control Compound I, reference compound] | 2800
